The values that follow come from patent US20060286624A1, “Method for identifying selective growth inhibitors” (priority 2003, published 2006).

For assay [1], the system named is DH5 (sensitive strain) co-seeded with pKS-DH5 (resistant strain). The assay is described as follows: Co-seeded agar plate assay (Assay Protocol A), DH5 sensitive / pKS-DH5 resistant strain. The class given is cell-based, Escherichia coli. The note with it: Run 6, FIG. 3; co-seeding ratio 500:1; 100 mg/mL, 10 μL in DMSO; 37° C., 12 to 18 hours. How it is done:
(§1) Each of a pair of bacterial strains, one sensitive and one resistant to a particular antibacterial agent, was grown by inoculating 25 mL of LB broth (i.e., 10 g of tryptone, 5 g of yeast extract, and 10 g NaCl per liter of water) with 1 to 5 colonies in an Erlenmeyer flask, and then holding the mixture overnight at a temperature of 37° C. while agitating the mixture via rotary shaking (200 rpm). Each batch was allowed to cool to room temperature (about 25° C.). Following OD measurements at λ=600 nm to ensure that both strains have grown to similar densities (i.e., a variation of 10% or less), a sample from the batch of the “sensitive” strain was diluted 10-fold in LB growth medium, and a sample of the “resistant” strain was diluted 500-fold or more to provide a final ratio (i.e., co-seeding ratio) of 50 or more sensitive cells to 1 resistant cell. A 750 μL sample of each of the diluted strains was then mixed into 20 mL of molten agar/growth medium agar (melt temperature=48° C.) (KD Medical's Cat. No. BLF-7070) and poured into rectangular 8.5×12.5 cm Omnitray dishes (Nalge NUNC Intl. Cat No. 242811). Wells were cast by applying custom-made pins (about 3 mm in diameter and 5 mm deep; Nalge NUNC Intl.) into the surface of the molten mixture (48 or 96 pins arrayed over the 8.5×12.5 cm surface) and then allowing the mixture to harden to provide an assay plate. […]

Assay [2] has as its system MSSA (sensitive strain) co-seeded with MRSA (resistant strain). As to the kind of experiment: Co-seeded agar plate assay (Assay Protocol A), MSSA sensitive / MRSA resistant strain. The class given is cell-based, Staphylococcus aureus. The note with it: co-seeding ratio 500:1, 10 μL in DMSO, 37° C., 12 to 18 hours. How it is done:
Each of a pair of bacterial strains, one sensitive and one resistant to a particular antibacterial agent, was grown by inoculating 25 mL of LB broth (i.e., 10 g of tryptone, 5 g of yeast extract, and 10 g NaCl per liter of water) with 1 to 5 colonies in an Erlenmeyer flask, and then holding the mixture overnight at a temperature of 37° C. while agitating the mixture via rotary shaking (200 rpm). Each batch was allowed to cool to room temperature (about 25° C.). Following OD measurements at λ=600 nm to ensure that both strains have grown to similar densities (i.e., a variation of 10% or less), a sample from the batch of the “sensitive” strain was diluted 10-fold in LB growth medium, and a sample of the “resistant” strain was diluted 500-fold or more to provide a final ratio (i.e., co-seeding ratio) of 50 or more sensitive cells to 1 resistant cell. A 750 μL sample of each of the diluted strains was then mixed into 20 mL of molten agar/growth medium agar (melt temperature=48° C.) (KD Medical's Cat. No. BLF-7070) and poured into rectangular 8.5×12.5 cm Omnitray dishes (Nalge NUNC Intl. Cat No. 242811). Wells were cast by applying custom-made pins (about 3 mm in diameter and 5 mm deep; Nalge NUNC Intl.) into the surface of the molten mixture (48 or 96 pins arrayed over the 8.5×12.5 cm surface) and then allowing the mixture to harden to provide an assay plate. Test samples dissolved in DMSO were added to the wells, after which the assay plate was incubated at 37° C. for a time sufficient to allow visual detection of cell colonies (i.e., 12 to 18 hours). The plates were then examined for zones of growth and inhibition under ambient light.
The tests set forth in Table 1 were conducted in the manner described in Assay Protocol A, except that in the case of the streptomycin-resistant strain, the inoculated liquid growth medium also contained 25 ug/mL of streptomycin in order to ensure that resistance was not lost during growth.

The test system of assay [3] is MRSA (sensitive strain) co-seeded with CRMRSA (resistant strain). As to the kind of experiment: Co-seeded agar plate assay (Assay Protocol A), MRSA sensitive / CRMRSA resistant strain. It is filed as cell-based, Staphylococcus aureus. The conditions noted are these: co-seeding ratio 100:1, 10 μL in DMSO, 37° C., 12 to 18 hours. How it is done: as §1
For assay [4], the system named is S-eEF2 (sensitive strain) co-seeded with HS-eEF2 (resistant strain). The assay is described as follows: Co-seeded agar plate assay (Assay Protocol B), S-eEF2 sensitive / HS-eEF2 resistant yeast strain. It is filed as cell-based, Saccharomyces cerevisiae. The note with it: co-seeding ratio 50:1, DMSO solution, overnight at 29° C. How it is done: Assay Protocol B The S. cerevisiae yeast strains, S-eEF2 and HS-eEF2, were each grown overnight from a single colony in 5 mL YPAD (i.e., 1% yeast extract, 2% peptone, 0.004% adenine sulfate, and 2% glucose) in an Erlenmeyer flask at 29° C. with shaking on a roller drum. The sensitive strain S-eEF2 was diluted with additional YPAD to give a final absorbance at λ=600 nm of 0.01 (control =YPAD), and the resistant strain HS-eEF2 was diluted to an absorbance at λ=600 nm of 0.0002. Each strain (5 mL) was added to a glass test tube containing 25 mL of molten YPAD agar equilibrated at 50° C. The mixture was then stirred briefly and poured onto sterile disposable 86×128-mm plastic dishes (NUNC Cat. No. 242811). The dishes were cooled for 5 minutes at room temperature, dried in a hood, and then stored for no more than 2 days until ready for treatment with test substances. Test substances were dissolved in the appropriate solvent and a suitable portion of the solution was spotted on the co-seeded plates. The plates were incubated overnight at 29° C., and then inspected visually for the appearance of zones of growth and inhibition, and particularly for the appearance of resistant colonies capable of growing in the presence of the test substances.
The tests set forth in Table 2 were conducted in the manner described in Assay Protocol B.

Assay [5] relates to ATCC 9637 (sensitive strain) co-seeded with MB941 (resistant strain). The assay is described as follows: Co-seeded agar plate assay (Assay Protocol A), ATCC 9637 sensitive / MB941 resistant strain. It is filed as cell-based, E. coli. The note with it: co-seeding ratio 1000:1, 10 μL in DMSO, 37° C., 12 to 18 hours. How it is done: as §1

SMILES strings stand for the structures.

Take `CC1(C)S[C@@H]2[C@H](NC(=O)[C@H](N)c3ccccc3)C(=O)N2[C@H]1C(=O)O` [ampicillin]: the “zone of growth inhibition (appearance, resistant colonies)” value (“zone of growth inhibition” below) in assay [1] is recorded as “isolated resistant colonies within a zone that otherwise exhibits no growth”.

In the case of `CO[C@@]1(NC(=O)Cc2cccs2)C(=O)N2C(C(=O)O)=C(COC(N)=O)CS[C@@H]21` [cefoxitin], in assay [2] (Run 3, FIG. 1C, 500 μg/mL), the “zone of growth inhibition” value is “a multitude of resistant colonies throughout the inhibition zone”.

On to `O=C(N[C@H](CO)[C@H](O)c1ccc([N+](=O)[O-])cc1)C(Cl)Cl` [chloramphenicol], for which the “zone of growth inhibition” value in assay [2] (Run 1, FIG. 1A, 100 μg/mL) is “visually contains no resistant colonies”; in assay [3] (Run 5, FIG. 2B, 1 mg/mL) it was “zone of no growth containing isolated colonies of resistant bacteria”.

With `O=C(O)c1cn(C2CC2)c2cc(N3CCNCC3)c(F)cc2c1=O` [ciproflaxin, ciprofloxacin], the “zone of growth inhibition” value in assay [3] (Run 4, FIG. 2A, 50 μg/mL) is on record as “clear zone of no growth”.

Regarding `CC(=O)O[C@@H]1C[C@]23C4=CC[C@@]5(C)[C@H](C(=O)O)[C@@](C)([C@H](C)C(C)C)CC[C@]5(C)[C@H]4CC[C@H]2[C@@](C)(COC3O)[C@H]1O[C@@H]1O[C@H](CO)[C@@H](O)[C@H](O)[C@H]1O` (stereo partly shown) [enfumafungin], the “zone of growth inhibition” value in assay [4] (Run 9, FIG. 5A, 0.2 μg spotted) is given as “visually clear zone exhibiting no growth of either the sensitive or the resistant strain”.

`CO[C@H]1[C@@H](O)[C@H](O)[C@H](OC[C@@]23C[C@@H]4[C@H](C)CC[C@H]4[C@@]4(C=O)CC2C=C(C(C)C)[C@@]34C(=O)O)O[C@@H]1C` [sordarin]: in assay [4] (Run 10, FIG. 5B, 2 μg spotted), the “zone of growth inhibition” value is reported as “zone of growth inhibition in which resistant colonies are present”.

As to `[H]/N=C(/N)N[C@H]1[C@H](O)[C@@H](O)[C@H](O[C@@H]2O[C@@H](C)[C@](O)(C=O)[C@H]2O[C@@H]2O[C@@H](CO)[C@H](O)[C@@H](O)[C@@H]2NC)[C@@H](N/C(N)=N\[H])[C@@H]1O` [streptomycin], the “zone of growth inhibition” value in assay [2] (Run 2, FIG. 1B, 1 mg/mL) is listed as “a few colonies at or near the border of the inhibition zone”; in assay [5] (Run 8, FIG. 4B, 500 μg/mL), “zone of no growth containing isolated colonies of resistant bacteria”.

For `CN(C)[C@@H]1C(O)=C(C(N)=O)C(=O)[C@@]2(O)C(O)=C3C(=O)c4c(O)cccc4[C@@](C)(O)[C@H]3C[C@@H]12` [tetracylin, tetracyclin], in assay [5] (Run 7, FIG. 4A, 1 mg/mL), the “zone of growth inhibition” value is given as “clear zone of no growth”.
